Columns and labels:
off-target kinases = assay: KinaseProfiler full kinase panel (overall); type: biochemical; conditions: 10 μM; for activity against off-target kinases: full kinase panel; for selectivity for inhibiting TrkA versus other kinases in the panel: panel of about 230 kinases
Description: Two representative compounds (Example 2, 14) of the invention were tested for off-target kinase activity at a concentration of 10 μM by Millipore, Inc. in their KinaseProfiler™ service against all the kinases available in their full kinase panel. These compounds were run in duplicate at a concentration of ATP near the Km for each individual kinase according to Millipore's specifications. The results are shown in Table B. Data are reported as percent of control (POC) and are the average of the two replicates.
Such a drug profile would represent a safer approach to treating pain, inflammation, cancer and certain skin diseases than has been previously reported.

[1] = biological target: His-tagged recombinant human TrkA (Homo sapiens (Human), UniProt P04629); assay: TrkA LanthaScreen Eu Kinase Binding Assay; conditions: averaged IC50, TrkA binding assay of Example A; read-out: TrkA Enzyme IC50
Description: TrkA binding activity was determined in a TrkA LanthaScreen™ Eu Kinase Binding Assay. 5 nM His-tagged recombinant human TrkA (6HIS tagged cytoplasmic domain from Invitrogen, Catalog No. PV3144) was incubated with 4 nM Alexa-Fluor® Tracer 236 (Invitrogen Cat. No. PV5592), 2 nM biotinylated anti-His (Invitrogen Cat. No. PV6090), and 2 nM europium-labeled Streptavidin (Invitrogen Cat. No. PV5899), in buffer (25 mM MOPS, pH 7.5, 5 mM MgCl2, 0.005% Triton X-100). Three fold serial dilutions of compounds of the invention in DMSO were added to a final percentage of 2% DMSO. After 60-minute incubation at 22° C., the reaction was measured using the EnVision mutlimode plate reader (PerkinElmer) via TR-FRET dual wavelength detection at […]. The percent of control was calculated using a ratiometric emission factor. The IC50 values were determined by fitting a four parameter model to the percent of control data.
Table A provides averaged IC50 values for compounds of the invention when tested in the assay of Example A, where A represents an averaged IC50 value <100 nM.

Sequence of His-tagged recombinant human TrkA (P04629 440-796): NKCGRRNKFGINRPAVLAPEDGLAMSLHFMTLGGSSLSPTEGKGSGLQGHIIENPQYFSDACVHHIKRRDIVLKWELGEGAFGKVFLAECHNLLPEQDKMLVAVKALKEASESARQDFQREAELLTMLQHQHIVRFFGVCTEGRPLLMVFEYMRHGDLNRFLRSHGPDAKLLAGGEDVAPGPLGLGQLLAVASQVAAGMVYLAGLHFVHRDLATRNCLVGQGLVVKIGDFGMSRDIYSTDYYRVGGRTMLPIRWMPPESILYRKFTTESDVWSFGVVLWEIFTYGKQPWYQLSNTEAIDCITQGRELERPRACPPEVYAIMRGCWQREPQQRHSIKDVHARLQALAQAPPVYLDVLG

Row | SMILES | activity against off-target kinases (off-target kinases) | selectivity for inhibiting TrkA versus other kinases in the panel (off-target kinases) | IC50 [1]
1 | COCCN1C[C@@H](NC(=O)Nc2c(C)c(-c3ccc(=O)n(C)c3)nn2-c2ccccc2)[C@H](c2ccc(F)c(Cl)c2)C1 (relative stereo) [Example 22, 1-(trans-4-(3-chloro-4-fluorophenyl)-1-(2-methoxyethyl)pyrrolidin-3-yl)-3-(4-methyl-3-(1-methyl-6-oxo-1,6-di hydropyridin-3-yl)-1-phenyl-1H-pyrazol-5-yl)urea] | – | – | < 0.1 µM
2 | COCCN1C[C@@H](NC(=O)Nc2c(C)c(-c3ccc(=O)n(C)c3)nn2-c2ccccc2)[C@H](c2ccc(Cl)c(F)c2)C1 (relative stereo) [Example 23, 1-(trans-4-(4-chloro-3-fluorophenyl)-1-(2-methoxyethyl)pyrrolidin-3-yl)-3-(4-methyl-3-(1-methyl-6-oxo-1,6-dihydropyridin-3-yl)-1-phenyl-1H-pyrazol-5-yl)urea] | – | – | < 0.1 µM
3 | COCCN1C[C@@H](NC(=O)Nc2c(C)c(-c3ccc(=O)n(C)c3)nn2-c2ccccc2)[C@H](c2cccc(Cl)c2)C1 (relative stereo) [Example 25, 1-(trans-4-(3-chlorophenyl)-1-(2-methoxyethyl)pyrrolidin-3-yl)-3-(4-methyl-3-(1-methyl-6-oxo-1,6-di hydropyridin-3-yl)-1-phenyl-1H-pyrazol-5-yl)urea] | – | – | < 0.1 µM

Continued, values first:

Row | activity against off-target kinases (off-target kinases) | selectivity for inhibiting TrkA versus other kinases in the panel (off-target kinases) | IC50 [1] | SMILES
4 | largely inactive | remarkable and unexpected selectivity | – | COCCN1C[C@@H](NC(=O)Nc2c(C)c(-c3cnc(C)nc3)nn2-c2ccccc2)[C@H](c2cc(F)cc(F)c2)C1 [Example 14, 1-((3S,4R)-4-(3,5-difluorophenyl)-1-(2-methoxyethyl)pyrrolidin-3-yl)-3-(4-methyl-3-(2-methylpyrimidin-5-yl)-1-phenyl-1H-pyrazol-5-yl)urea]
5 | – | – | < 0.1 µM | COCCN1C[C@@H](NC(=O)Nc2c(C)c(-c3ccc(=O)n(C)c3)nn2-c2ccccc2)[C@H](c2cc(F)cc(Cl)c2)C1 (relative stereo) [Example 24, 1-(trans-4-(3-chloro-5-fluorophenyl)-1-(2-methoxyethyl)pyrrolidin-3-yl)-3-(4-methyl-3-(1-methyl-6-oxo-1,6-di hydropyridin-3-yl)-1-phenyl-1H-pyrazol-5-yl)urea]
6 | largely inactive | remarkable and unexpected selectivity | – | COCCN1C[C@@H](NC(=O)Nc2c(C)c(-c3ccnc(C)c3)nn2-c2ccccc2)[C@H](c2ccc(F)c(F)c2)C1 [Example 2, 1-((3S,4R)-4-(3,4-difluorophenyl)-1-(2-methoxyethyl)pyrrolidin-3-yl)-3-(4-methyl-3-(2-methylpyridin-4-yl)-1-phenyl-1H-pyrazol-5-yl)urea]

Source: patent US10851080B2, “Methods of treatment using pyrrolidinyl urea, thiourea, guanidine and cyanoguanidine compounds” (Array BioPharma Inc., priority 2012, dated 2020)
